Source: US20140039044A1, “Hydroxylated Polymethoxyflavone Compositions” (WLLGEN, INC., priority 2006, published 2014)

What was measured:
Assay type in all cases: cell-based, human
HL-60 cells = experiment: Cell survival assay (antiproliferative IC50); conditions: Homo sapiens, HL-60, read-out: Antiproliferative IC50
Procedure: (§1) Human colon carcinoma COLO205 and HT-29 cell lines (American Type Culture Collection (ATTC), Manassas, Va.) and the leukemia cell line HL-60 were maintained at 37° C. in 5% CO2 air in RPMI 1640 medium supplemented with 10% heat-inactivated fetal bovine serum (Gibco BRL, Grand Island, N.Y.), 100 units/mL penicillin, 100 μg/mL streptomycin and 2 mM 1-glutamine. The human gastric carcinoma AGS cell line (CCRC 60102), obtained from the Food Industry Research and Development Institute (Hsinchu, Taiwan), was maintained as described above, except that DMEM/F 12 was used as the medium rather than the RPMI 1640 medium. The human breast carcinoma MCF-7 cell line MCF-7 (ATTC) was cultured in RPMI 1640 medium supplemented with 5% fetal calf serum at 37° C. in a humidified atmosphere of 5% CO2 in air. The mouse macrophage cell line RAW 264.7 was maintained in RPMI 1640 supplemented with 100 U/ml penicillin, 100 μg/ml streptomycin, and 10% heat-inactivated fetal calf serum.
(§2) Cancer cells (2×10^5) were plated in 12-well Petri dishes. The next day, the medium was changed and treated with different concentration of the test compounds or compositions for 24 h. Where individual compounds were to be tested, stock solutions of the compound was prepared to contain 200 μM of the individual hydroxylated or non-hydroxylated PMF in dimethylsulfoxide (DMSO). Control cells were treated with DMSO to a final concentration of 0.05% (v/v). Depending on the objective of the particular experiment, cells were treating with test compound or composition for 1, 3 or 6 days. At the end of incubation, cells were harvested for cell count using a hemocytometer and measuring the cellular total nucleic acid content with the CyQUANT Cell Proliferation Assay Kit (Molecular Probes).
(§3) 1 N PMF and 6 N PMF compositions containing hydroxylated PMFs, prepared as described in Section 8.3 above, 70% PMF OPE and 5,6,7,8,3′,4′-hexamethoxyflavone (nobiletin) were tested for antiproliferative activity and apoptosis-inducing activity in HL-60, AGS and COLO205 cells as described in Section 8.4 above. Antiproliferative and apoptosis-inducing activities were derived as IC50 values and AC50, values, respectively, where AC50 is the concentration required for 50% apoptosis.
(§4) The PMF compounds were assayed in vitro for cell growth inhibition and for their ability to induce apoptosis in various human cancer cells, including HL-60, AGS, COLO 205, and HT-29 cells, using methods described in Section 8.4 above. Antiproliferative (IC50) and apoptosis-inducing activity (AC50) of PMFs in the HL-60, AGS, COLO 205, and HT-29 cells are reported in Table 9, where *P<0.05, **P<0.01 and ***P<0.001 indicate statistically significant differences from the control group.

COLO205 cells [1] = experiment: Cell survival assay (antiproliferative IC50); conditions: Homo sapiens, COLO 205, read-out: Antiproliferative IC50
Procedure: as §1, §2, §3, §4

AGS cells [2] = experiment: Cell survival assay (antiproliferative IC50); conditions: Homo sapiens, AGS, read-out: Antiproliferative IC50
Procedure: as §1, §2, §3, §4

HT-29 cells = experiment: Cell survival assay (antiproliferative IC50); conditions: Homo sapiens
Procedure: as §1, §2, §4

COLO205 cells [3] = experiment: Cell cycle distribution by flow cytometry; conditions: 24 h; for Cell Cycle Distribution G0/G1 / Cell Cycle Distribution G2/M / Cell Cycle Distribution S: COLO205 cells, Table 12
Procedure: (§5) The human cancer cells (2×10^5) were cultured in 60-mm Petri dishes and incubated for 24 h. After treated with test compounds for 24 h, the cells were then harvested, washed with PBS resuspended in 200 μL of PBS, and fixed in 800 μL of iced 100% ethanol at −20° C. After being left to stand overnight, the cell pellets were collected by centrifugation, resuspended in 1 mL of hypotonic buffer (0.5% Triton X-100 in PBS and 0.5 μg/mL RNase) and incubated at 37° C. for 30 min. Next, 1 mL of propidium iodide solution (50 μg/mL) was added, and the mixture was allowed to stand on ice for 30 min. Fluorescence emitted from the propidium iodide-DNA complex was quantitated after excitation of the fluorescent dye by FACScan cytometry (Becton Dickinson, San Jose, Calif.).
(§6) The effects of the hydrolyzed PMF-enriched compositions, nobiletin and 70% PMF OPE on cell cycle distribution were studied, following the procedures described in Section 8.4. Results for cell cycle distribution in HL-60 cells, COLO205 cells and AGS cells are provided in Table 5, Table 6 and Table 7, respectively. […] In HL-60 cells, G2/M arrest predominated in cells treated with 6N PMF concentrations ≧5 μM and with 1N PMF concentrations ≧25 μM.
(§7) Compounds A-K were evaluated in terms of their effects in arresting cell cycle progression by observing cell cycle phase distribution in cells treated with the compounds. Cells were treated with 5, 10, 25, 50, and 100 μM of one of compound A-K or DMSO (control) for 24 h and subjected to flow cytometric analysis after staining their DNA, as described above.
(§8) Similar cell cycle phase distribution studies were performed in AGS, COLO205, and HT-29 cells in response to individual PMFs, with results reported in Tables 11, 12 and 13, respectively.

AGS cells [4] = experiment: Cell cycle distribution by flow cytometry; conditions: 24 h, Table 11
Procedure: as §5, §6, §7, §8

SMILES: COc1ccc(-c2cc(=O)c3c(OC)c(OC)c(OC)c(OC)c3o2)cc1O [I, 3′-hydroxy-5,6,7,8,4′-pentamethoxyflavone]
- IC50 (HL-60 cells): 52.72 ± 0.22 µM
- IC50 (COLO205 cells [1]): 76 ± 1.88 µM
- IC50 (AGS cells [2]): 65.75 ± 0.41 µM
- IC50 (HT-29 cells): > 100 µM
- Cell Cycle Distribution G0/G1 (COLO205 cells [3]; 5 μM): 64.51 ± 1.26
- Cell Cycle Distribution G2/M (COLO205 cells [3]; 5 μM): 6.46 ± 0.35
- Cell Cycle Distribution S (COLO205 cells [3]; 5 μM): 29.03 ± 1.61
- Cell Cycle Distribution G0/G1 (COLO205 cells [3]; 10 μM): 64.14 ± 1.71
- Cell Cycle Distribution G2/M (COLO205 cells [3]; 10 μM): 5.54 ± 0.41
- Cell Cycle Distribution S (COLO205 cells [3]; 10 μM): 30.32 ± 1.30
- Cell Cycle Distribution G0/G1 (COLO205 cells [3]; 25 μM): 67.09 ± 0.57
- Cell Cycle Distribution G2/M (COLO205 cells [3]; 25 μM): 5.43 ± 1.17
- Cell Cycle Distribution S (COLO205 cells [3]; 25 μM): 27.48 ± 0.62
- Cell Cycle Distribution G0/G1 (COLO205 cells [3]; 50 μM): 68.03 ± 1.51
- Cell Cycle Distribution G2/M (COLO205 cells [3]; 50 μM): 4.83 ± 1.48
- Cell Cycle Distribution S (COLO205 cells [3]; 50 μM): 27.15 ± 0.04
- Cell Cycle Distribution G0/G1 (COLO205 cells [3]; 100 μM): 83.31 ± 1.06
- Cell Cycle Distribution G2/M (COLO205 cells [3]; 100 μM): 0.02 ± 0.02
- Cell Cycle Distribution S (COLO205 cells [3]; 100 μM): 16.68 ± 1.04
- Cell cycle arrest, in words (COLO205 cells [3]; COLO 205 cells, compound A 50 μM, compound I 100 μM): trends in G1 arrest
- Cell Cycle Distribution G0/G1 (AGS cells [4]; 5 μM): 57.25 ± 0.28
- Cell Cycle Distribution G2/M (AGS cells [4]; 5 μM): 16.01 ± 0.21
- Cell Cycle Distribution S (AGS cells [4]; 5 μM): 26.74 ± 0.49
- Cell Cycle Distribution G0/G1 (AGS cells [4]; 10 μM): 58.27 ± 0.96
- Cell Cycle Distribution G2/M (AGS cells [4]; 10 μM): 17.94 ± 1.07
- Cell Cycle Distribution S (AGS cells [4]; 10 μM): 23.79 ± 2.03
- Cell Cycle Distribution G0/G1 (AGS cells [4]; 25 μM): 49.07 ± 1.22
- Cell Cycle Distribution G2/M (AGS cells [4]; 25 μM): 16.15 ± 0.69
- Cell Cycle Distribution S (AGS cells [4]; 25 μM): 34.79 ± 1.90
- Cell Cycle Distribution G0/G1 (AGS cells [4]; 50 μM): 62.72 ± 1.27
- Cell Cycle Distribution G2/M (AGS cells [4]; 50 μM): 0.59 ± 0.74
- Cell Cycle Distribution S (AGS cells [4]; 50 μM): 36.70 ± 2.00
- Cell Cycle Distribution G0/G1 (AGS cells [4]; 100 μM): 69.35 ± 0.70
- Cell Cycle Distribution G2/M (AGS cells [4]; 100 μM): 12.65 ± 0.84
- Cell Cycle Distribution S (AGS cells [4]; 100 μM): 18.01 ± 0.14
